Values of other authors as cited in US9913833B2, “Methods of treating developmental disorders using pipradrol” (Ovid Therapeutics Inc., priority 2015, dated 2018).

Test system: depression
Conditions: published study on 111 individuals with depression

## OC(c1ccccc1)(c1ccccc1)C1CCCCN1 (stereo not shown) [pipradrol]
  efficacy in depression compared with placebo: not superior to placebo
